Measured values published in patent US20250034586A1, “METHOD FOR EDITING BANANA GENES” (Tropic Biosciences UK Limited, priority 2021, published 2025).

Assays:
[1] = test system: Tomato plants; settings: in vivo; cited from earlier work
[2] = test system: banana WT and ALS edited embryos; test: CSF in ECS regeneration, optimisation for edited embryos; format: cell-based; settings: 3 months treatment
Experimental: Data were obtained for using CSF in ECS regeneration (3 months treatment) for concentrations 0, 25, 50 and 100 μg/L.

[3] = test system: Rice protoplasts; settings: for 10dd; cited from earlier work
[4] = test system: banana ECS; test: CSF selection of embryos from Agrobacterium-transformed banana ECS; format: cell-based; settings: after 3 months
Experimental: Agrobacterium tumefaciens AGL1 carrying the binary plasmids pMol_0628, pMol_0630, and pMol_0632 were streaked from glycerol in LB solid medium supplemented with rifampicin 50 mg/L, kanamycin 100 mg/L and carbenicillin 50 mg/L and incubated at 28° C. for 2 days. On the second day, the bacteria were inoculated in MG/L medium (discussed in Sarkar et al., Methods Mol Biol. 2013; 966: 187-204) supplemented with the same antibiotics and incubated overnight at 28° C. Next day, the cultures were spun down at 4000 rpm for 10 min to pellet the cells and after they were resuspended in ABIM (Agrobacterium induction media; discussed in Sarkar et al., Methods Mol Biol. 2013; 966: 187-204) to induce virulence and incubated overnight in the dark at room temperature. The OD600 of the bacteria was measured using NanoDrop2000 and normalised to 0.6 in CS liquid media supplemented with acetosyringone (100 μM).
Banana ECS with 2/3 day-old cells was pelleted and resuspended in CS medium. 0.5 mL of the suspension (approximately 0.1 mL of ECS) was split according to the number of transformations into small Eppendorf tubes. The cells were incubated at 45° C. for 5 min and after they were incubated at room temperature for another 5 min. Then, 1 mL of agrobacterium suspension was added to each banana ECS sample. […]

[5] = test system: Marchantia polymorpha spores; settings: (180 μg/L) for 7dd; cited from earlier work
[6] = test system: Potato somatic cells; settings: cited from earlier work
[7] = test system: ALS1 or ALS2; test: Genotyping of CSF-selected samples (PBE experiments); format: cell-based, banana; settings: across all experiments, embryos and shoots
Text: gDNA from embryos and plantlets was extracted and qPCR was used to test for the presence of integrated tDNA in the plant genome. Three independent qPCRs were run on each sample with different sets of primers (listed below) spanning the tDNA, ranging from the left to right border. An additional qPCR was run on an endogenous banana gene (actin) for normalisation of Ct values. All qPCRs were run on the LightCycler® 96 System (Roche) using PowerUp™ SYBR® Green Master Mix (Thermo Fisher Scientific™).
For edit validation, amplicons for each target gene (als1, als2, ppo2, aco1) were made using Q5® High-Fidelity 2× Master Mix (New England Biolabs, NEB) using reaction settings listed below. PCR products were purified using Monarch® PCR & DNA Cleanup Kit (NEB) according to manufacturer's specifications. The amplicons were after validated by Sanger sequencing.

[8] = test system: banana rooting plantlets; test: CSF kill curves in banana rooting plantlets (in medium, spraying, both); format: in vivo
Experimental: The effect of CSF was also evaluated in rooting plantlets. Three methods were tested, (i) incorporation of CSF in the rooting medium (RM), (ii) spraying the plantlets with CSF solution and (iii) incorporation in the media of a lower concentration of CSF (0.5 mg/L) and spraying the plantlets (concurrently).
Six CSF concentrations, 0, 0.05, 0.5, 5, 50 and 100 mg/L, were tested in rooting plantlets.
Rooting banana plantlets were cleared of roots and split from the corm to have single shoots for testing with RM medium with or without CSF. Five to six shoots with similar morphology were inoculated into each phytotray.
For spraying tests, CSF solutions (concentrations above) were prepared in sterile deionised water or in 0.015% Silwett L-77. One mL of solution was sprayed onto each phytotray (five shoots per phytotray, so 1 mL between five shoots). For control conditions (Omg/L CSF), 1 mL of deionised water was used.
A range of CSF concentrations (0, 0.05, 0.5, 5, 50, 100 mg/L) were tested in banana rooting shoots. Banana shoots were separated from roots and split to give single shoots that were inoculated into new media to determine the effect of CSF over a month of exposure. To assess the effectiveness of CSF in banana three approaches were tested: (i) incorporation of the toxin in RM medium, (ii) spraying the shoots, and (iii) spraying the shoots plus incorporation of a small amount of CSF […] in RM.

SMILES: COc1nc(C)nc(NC(=O)NS(=O)(=O)c2ccccc2Cl)n1 [CSF, chlorsulfuron]
- CSF concentration reported to be effective [1]: 3.6 µg/L
- Frequency of ALS edited embryos recovered after selection ([2]; CSF 25 μg/L): 1500 ± 500
- Frequency of WT embryos recovered after selection ([2]; CSF 25 μg/L): 0
- Frequency of ALS edited embryos recovered after selection ([2]; CSF 50 μg/L): 750 ± 250
- Frequency of WT embryos recovered after selection ([2]; CSF 50 μg/L): 0
- Frequency of ALS edited embryos recovered after selection ([2]; CSF 100 μg/L): 0
- Frequency of WT embryos recovered after selection ([2]; CSF 100 μg/L): 0
- CSF concentration reported to be effective [3]: 3.6 µg/L
- Embryos, untransformed cells ([4]; CSF 25 μg/L): No
- Embryos, untransformed cells ([4]; CSF 50 μg/L): No
- CSF concentration reported to be effective [5]: 0.5 µM
- CSF concentration reported to be effective [6]: 20 µg/L
- Non-transgenic rate in CSF selected samples [7]: > 10%
- Severity of symptoms ([8]; 0.05 mg/L CSF in the medium plus spraying with CSF): an increase in the severity of symptoms
- Root development ([8]; CSF in medium, even at 0.05 mg/L): root development was not observed
- Effective CSF concentration added to the medium (plantlets did not develop, chlorotic phenotype) ([8]; CSF incorporated in RM medium, repeated 3 times): 0.5 mg/L
- Lowest concentration that delayed shoot development ([8]; spraying banana shoots): 5 mg/L
- Shoot development ([8]; weekly spraying with 0.5 mg/L CSF): quite effective at delaying banana shoot development
